Structures can show the parent of a compound that is named as a salt. Where two headings read alike, the source gives them in different places.
Columns and labels:
[1] = clinical use of the marketed drug; cited from earlier work
mTOR = biological target: T1, mTOR (Homo sapiens, UniProt P42345); assay: mTOR kinase inhibition assay (radiometric or LanthaScreen TR-FRET); assay type: biochemical; conditions: read-out: mTORC IC50
T1 construct: purchased Invitrogen

PI3K α (p110α/p85α) = biological target: T2, PI3K α (p110α/p85α) (Homo sapiens, UniProt P42336); assay: PI 3-Kinase (human) HTRF assay, PI3K α; assay type: biochemical; conditions: read-out: PI3K α IC50
T2 construct: purchased Upstate / Millipore Corporation
T2 sequence (P42336 whole entry): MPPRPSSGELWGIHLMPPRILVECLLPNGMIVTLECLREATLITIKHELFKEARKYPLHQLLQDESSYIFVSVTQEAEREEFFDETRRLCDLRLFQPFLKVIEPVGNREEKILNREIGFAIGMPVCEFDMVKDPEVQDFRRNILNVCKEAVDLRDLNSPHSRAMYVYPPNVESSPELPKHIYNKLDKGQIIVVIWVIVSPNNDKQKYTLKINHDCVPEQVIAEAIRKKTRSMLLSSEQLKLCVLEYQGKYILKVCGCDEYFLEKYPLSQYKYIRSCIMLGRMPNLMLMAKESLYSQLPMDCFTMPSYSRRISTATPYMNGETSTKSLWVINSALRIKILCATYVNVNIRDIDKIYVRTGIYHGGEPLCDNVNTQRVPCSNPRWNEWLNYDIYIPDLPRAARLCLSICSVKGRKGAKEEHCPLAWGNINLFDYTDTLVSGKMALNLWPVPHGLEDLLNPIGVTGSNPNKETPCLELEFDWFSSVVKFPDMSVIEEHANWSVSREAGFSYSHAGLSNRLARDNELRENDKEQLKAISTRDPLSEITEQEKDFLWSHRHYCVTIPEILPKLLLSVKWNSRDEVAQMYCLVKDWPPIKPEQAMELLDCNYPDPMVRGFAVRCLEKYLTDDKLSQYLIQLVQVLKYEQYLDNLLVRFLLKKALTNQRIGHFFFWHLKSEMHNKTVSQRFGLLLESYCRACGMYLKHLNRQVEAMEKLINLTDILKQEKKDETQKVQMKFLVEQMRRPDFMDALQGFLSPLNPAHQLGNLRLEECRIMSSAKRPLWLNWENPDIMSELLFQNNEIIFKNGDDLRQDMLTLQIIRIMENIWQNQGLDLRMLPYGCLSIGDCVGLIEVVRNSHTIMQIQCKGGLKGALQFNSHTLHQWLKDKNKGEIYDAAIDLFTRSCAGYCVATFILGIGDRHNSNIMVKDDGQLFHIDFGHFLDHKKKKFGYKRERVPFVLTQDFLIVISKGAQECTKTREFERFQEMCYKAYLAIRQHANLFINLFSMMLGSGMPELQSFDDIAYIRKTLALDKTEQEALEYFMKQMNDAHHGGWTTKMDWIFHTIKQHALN
T2 sequence (P27986 whole entry partner): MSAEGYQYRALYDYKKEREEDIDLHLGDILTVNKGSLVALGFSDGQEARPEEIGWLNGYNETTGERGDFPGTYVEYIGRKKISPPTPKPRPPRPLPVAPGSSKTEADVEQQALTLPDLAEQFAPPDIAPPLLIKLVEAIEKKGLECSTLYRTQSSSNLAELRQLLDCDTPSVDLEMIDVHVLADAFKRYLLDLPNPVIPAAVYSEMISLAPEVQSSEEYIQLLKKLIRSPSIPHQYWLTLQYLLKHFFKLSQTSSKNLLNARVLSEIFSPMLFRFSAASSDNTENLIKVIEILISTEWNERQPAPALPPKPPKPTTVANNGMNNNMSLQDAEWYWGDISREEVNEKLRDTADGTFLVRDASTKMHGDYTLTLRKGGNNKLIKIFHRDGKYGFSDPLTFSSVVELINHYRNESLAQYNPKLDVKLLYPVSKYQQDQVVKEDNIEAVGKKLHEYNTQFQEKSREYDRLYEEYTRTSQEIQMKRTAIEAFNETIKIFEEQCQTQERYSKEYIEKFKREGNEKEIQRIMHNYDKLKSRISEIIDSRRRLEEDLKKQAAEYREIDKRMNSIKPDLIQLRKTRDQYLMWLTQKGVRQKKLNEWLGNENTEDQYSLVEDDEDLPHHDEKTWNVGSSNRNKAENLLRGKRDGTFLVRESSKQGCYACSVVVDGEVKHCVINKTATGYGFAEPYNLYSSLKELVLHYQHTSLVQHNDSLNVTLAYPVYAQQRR

PI3K β (p110β/p85α) = biological target: T3, PI3K β (p110β/p85α) (Homo sapiens, UniProt P42338); assay: PI 3-Kinase (human) HTRF assay, PI3K β; assay type: biochemical; conditions: read-out: PI3K β IC50
T3 construct: purchased Upstate / Millipore Corporation
T3 sequence (P42338 whole entry): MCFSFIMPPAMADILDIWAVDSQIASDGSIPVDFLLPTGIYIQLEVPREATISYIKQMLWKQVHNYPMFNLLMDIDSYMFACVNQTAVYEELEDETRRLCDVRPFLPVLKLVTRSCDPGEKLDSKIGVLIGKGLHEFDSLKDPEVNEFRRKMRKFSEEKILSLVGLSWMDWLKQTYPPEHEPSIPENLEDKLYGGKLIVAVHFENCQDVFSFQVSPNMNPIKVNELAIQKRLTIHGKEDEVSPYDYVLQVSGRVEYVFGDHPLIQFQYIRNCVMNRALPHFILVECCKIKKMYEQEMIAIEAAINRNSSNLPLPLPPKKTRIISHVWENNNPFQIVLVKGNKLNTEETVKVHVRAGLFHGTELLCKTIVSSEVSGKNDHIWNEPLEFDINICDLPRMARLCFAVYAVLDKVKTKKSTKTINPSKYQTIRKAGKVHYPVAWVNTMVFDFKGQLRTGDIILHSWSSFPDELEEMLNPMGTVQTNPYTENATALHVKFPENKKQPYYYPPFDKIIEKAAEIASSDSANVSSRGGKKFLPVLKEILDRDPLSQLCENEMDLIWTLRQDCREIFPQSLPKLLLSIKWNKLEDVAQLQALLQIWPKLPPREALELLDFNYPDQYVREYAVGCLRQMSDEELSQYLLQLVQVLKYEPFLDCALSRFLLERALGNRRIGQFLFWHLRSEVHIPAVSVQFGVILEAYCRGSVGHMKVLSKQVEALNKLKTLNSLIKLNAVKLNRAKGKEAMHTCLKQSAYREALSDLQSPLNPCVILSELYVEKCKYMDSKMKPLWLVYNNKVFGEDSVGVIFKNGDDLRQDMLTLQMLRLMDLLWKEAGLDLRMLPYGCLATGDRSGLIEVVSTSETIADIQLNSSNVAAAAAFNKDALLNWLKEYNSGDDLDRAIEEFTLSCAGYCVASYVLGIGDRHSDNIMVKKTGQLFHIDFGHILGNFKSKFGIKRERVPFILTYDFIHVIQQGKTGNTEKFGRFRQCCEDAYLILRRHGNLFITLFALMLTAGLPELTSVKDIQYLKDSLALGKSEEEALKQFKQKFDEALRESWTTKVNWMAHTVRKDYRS
T3 sequence (P27986 whole entry partner): as the sequence (P27986 whole entry partner) above

PI3K γ (p110γ) = biological target: T4, PI3K γ (p110γ) (Homo sapiens, UniProt P48736); assay: PI 3-Kinase (human) HTRF assay, PI3K γ; assay type: biochemical; conditions: read-out: PI3K γ IC50
T4 construct: purchased Upstate / Millipore Corporation
T4 sequence (P48736 whole entry): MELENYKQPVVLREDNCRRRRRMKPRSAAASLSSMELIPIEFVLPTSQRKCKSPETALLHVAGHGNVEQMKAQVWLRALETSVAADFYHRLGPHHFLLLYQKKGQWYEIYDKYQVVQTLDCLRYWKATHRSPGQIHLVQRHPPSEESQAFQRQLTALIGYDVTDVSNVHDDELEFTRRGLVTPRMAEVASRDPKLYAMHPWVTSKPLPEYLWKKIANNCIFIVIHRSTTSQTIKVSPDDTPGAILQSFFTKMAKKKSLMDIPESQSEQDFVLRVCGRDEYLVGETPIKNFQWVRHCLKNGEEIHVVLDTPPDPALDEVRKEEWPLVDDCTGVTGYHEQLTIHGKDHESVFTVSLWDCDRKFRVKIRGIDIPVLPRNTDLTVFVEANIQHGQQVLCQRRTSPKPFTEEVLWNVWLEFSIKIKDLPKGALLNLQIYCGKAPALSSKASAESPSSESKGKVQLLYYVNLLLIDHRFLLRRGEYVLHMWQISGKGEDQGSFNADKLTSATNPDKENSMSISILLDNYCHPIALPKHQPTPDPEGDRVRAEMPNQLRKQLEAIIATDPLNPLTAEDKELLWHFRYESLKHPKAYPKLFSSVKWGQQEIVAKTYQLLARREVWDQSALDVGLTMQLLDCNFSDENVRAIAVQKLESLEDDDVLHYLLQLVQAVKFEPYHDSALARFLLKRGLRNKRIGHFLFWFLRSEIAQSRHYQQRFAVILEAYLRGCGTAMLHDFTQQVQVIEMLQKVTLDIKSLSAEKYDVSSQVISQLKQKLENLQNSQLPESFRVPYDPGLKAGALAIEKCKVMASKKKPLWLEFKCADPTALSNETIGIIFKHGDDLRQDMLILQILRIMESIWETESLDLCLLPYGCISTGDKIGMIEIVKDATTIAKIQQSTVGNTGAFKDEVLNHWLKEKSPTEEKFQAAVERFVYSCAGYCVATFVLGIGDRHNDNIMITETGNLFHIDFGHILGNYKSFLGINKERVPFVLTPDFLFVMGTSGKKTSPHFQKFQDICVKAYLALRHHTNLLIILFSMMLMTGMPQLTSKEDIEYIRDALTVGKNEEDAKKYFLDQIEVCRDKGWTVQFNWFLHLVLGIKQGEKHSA
Protocol: Briefly, the assay is a time resolved FRET assay that indirectly measures PIP3 product formed by the activity of a PI3-K. The kinase reaction is performed in a microtiter plate (e.g., a 384 well microtiter plate). The total reaction volume is approximately 20 ul per well. In the first step, each well receives 2 ul of test compound in 20% dimethylsulphoxide resulting in a 2% DMSO final concentration. […] The plate is sealed and incubated for 15 minutes at room temperature. […] The plate is sealed and incubated for 1 hour at room temperature. The reaction is stopped by adding 5 ul of Stop Solution per well and then 5 ul of Detection Mix is added per well. The plate is sealed, incubated for 1 hour at room temperature, and then read on an appropriate plate reader. Data is analyzed and IC50s are generated using GraphPad Prism 5.

PI3K δ = biological target: T5, PI3K δ (Homo sapiens, UniProt O00329); assay: PI 3-Kinase (human) HTRF assay, PI3K δ; assay type: biochemical; conditions: read-out: PI3K δ IC50
T5 construct: purchased Upstate / Millipore Corporation
T5 sequence (O00329 whole entry): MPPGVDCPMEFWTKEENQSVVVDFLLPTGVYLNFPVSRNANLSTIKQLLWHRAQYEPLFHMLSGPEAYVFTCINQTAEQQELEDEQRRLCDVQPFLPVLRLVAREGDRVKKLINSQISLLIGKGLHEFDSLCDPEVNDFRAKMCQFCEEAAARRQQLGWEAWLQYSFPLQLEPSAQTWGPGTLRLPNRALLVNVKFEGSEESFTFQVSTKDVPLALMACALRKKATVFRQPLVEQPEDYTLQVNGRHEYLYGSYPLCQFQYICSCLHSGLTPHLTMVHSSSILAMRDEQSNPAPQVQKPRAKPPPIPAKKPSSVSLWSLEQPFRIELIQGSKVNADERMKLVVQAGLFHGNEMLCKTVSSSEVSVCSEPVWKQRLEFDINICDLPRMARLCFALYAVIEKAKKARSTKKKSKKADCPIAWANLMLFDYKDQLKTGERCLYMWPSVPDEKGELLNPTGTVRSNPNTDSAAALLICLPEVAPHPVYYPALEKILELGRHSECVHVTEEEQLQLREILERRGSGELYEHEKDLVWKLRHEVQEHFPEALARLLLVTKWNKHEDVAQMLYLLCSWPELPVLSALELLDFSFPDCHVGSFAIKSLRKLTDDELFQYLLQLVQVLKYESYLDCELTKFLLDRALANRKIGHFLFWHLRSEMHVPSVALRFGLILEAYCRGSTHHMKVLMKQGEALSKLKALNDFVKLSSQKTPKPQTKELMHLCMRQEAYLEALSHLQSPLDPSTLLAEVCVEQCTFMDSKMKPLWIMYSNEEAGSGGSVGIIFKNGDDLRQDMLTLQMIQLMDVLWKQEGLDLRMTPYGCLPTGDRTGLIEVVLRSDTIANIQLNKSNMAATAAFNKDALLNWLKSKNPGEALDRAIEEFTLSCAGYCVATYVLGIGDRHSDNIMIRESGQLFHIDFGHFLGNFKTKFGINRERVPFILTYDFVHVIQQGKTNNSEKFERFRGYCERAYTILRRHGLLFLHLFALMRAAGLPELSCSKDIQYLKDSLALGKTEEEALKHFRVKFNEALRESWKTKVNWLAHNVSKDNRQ
T5 sequence (P27986 whole entry partner): as the sequence (P27986 whole entry partner) above

SMILES	dose limiting or most common side effect [1]	IC50 (mTOR) [µM]	IC50 (PI3K α (p110α/p85α)) [µM]	IC50 (PI3K β (p110β/p85α)) [µM]	IC50 (PI3K γ (p110γ)) [µM]	IC50 (PI3K δ) [µM]	IC50 (mTOR; Table 4 (PI3K α inhibitors)) [µM]	IC50 (PI3K α (p110α/p85α); Table 4 (PI3K α inhibitors)) [µM]	IC50 (PI3K β (p110β/p85α); Table 4 (PI3K α inhibitors)) [µM]	IC50 (PI3K γ (p110γ); Table 4 (PI3K α inhibitors)) [µM]	IC50 (PI3K δ; Table 4 (PI3K α inhibitors)) [µM]
CCC1=C[C@@H]2CN(C1)Cc1c([nH]c3ccccc13)[C@@](C(=O)OC)(c1cc3c(cc1OC)N(C)[C@H]1[C@@](O)(C(=O)OC)[C@H](OC(C)=O)[C@]4(CC)C=CCN5CC[C@]31[C@@H]54)C2 (relative stereo) [vinorelbine, 3′,4′-didehydro-4′-deoxy-C′-norvincaleukoblastine [R—(R*,R*)-2,3-dihydroxybutanedioate (1:2)(salt)]]	Myelosuppression	–	–	–	–	–	–	–	–	–	–
O=c1[nH]cc(F)c(=O)[nH]1 [5-fluorouracil, 5-fluoro-2,4-(1H,3H) pyrimidinedione]	Myelosuppression and mucositis	–	–	–	–	–	–	–	–	–	–
Nc1nc2cc(-c3ccc4ncc(N5CC(N6CCNCC6)C5)nc4c3)ccc2o1 [Compound 326]	–	> 10	< 0.1	< 1	< 1	< 1	–	–	–	–	–
CC(=O)N1CCN(C2CN(c3cnc4ccc(-c5ccc6oc(N)nc6c5)cc4n3)C2)CC1 [Compound 327]	–	> 10	< 0.1	< 10	< 1	< 1	–	–	–	–	–
CS(=O)(=O)N1CCN(C2CN(c3cnc4ccc(-c5ccc6oc(N)nc6c5)cc4n3)C2)CC1 [Compound 328]	–	> 10	< 0.1	< 10	< 10	< 10	–	–	–	–	–
CCN1CCN(C2CN(c3cnc4ccc(-c5ccc6oc(N)nc6c5)cc4n3)C2)CC1 [Compound 329]	–	> 10	< 0.1	< 1	< 10	< 1	–	–	–	–	–
COC(=O)N1CCC(n2ncc3c(N4CCOCC4)nc(-c4ccc5oc(N)nc5c4)nc32)CC1 [Compound 330]	–	< 1	< 1	< 10	> 10	> 10	–	–	–	–	–
CC(C)N1CCN(C2CN(c3cnc4ccc(-c5ccc6oc(N)nc6c5)cc4n3)C2)CC1 [Compound 331]	–	> 10	< 0.1	< 10	< 10	< 10	–	–	–	–	–
Nc1nc2cc(-c3ccc4ncc(N5CC(N6CCN(CCO)CC6)C5)nc4c3)ccc2o1 [Compound 333]	–	> 10	< 0.1	< 10	< 10	< 1	–	–	–	–	–
Nc1nc2cc(-c3ccc4ncc(N5CC(N6CCN(CC7CC7)CC6)C5)nc4c3)ccc2o1 [Compound 335]	–	> 10	< 0.1	< 10	> 10	< 10	–	–	–	–	–
Nc1nc2cc(-c3ccc4ncc(N5CCC(n6ccnc6)CC5)nc4c3)ccc2o1 [Compound 345]	–	< 10	< 0.1	< 1	< 1	< 1	–	–	–	–	–
Nc1nc2cc(-c3nc(N4CCOCC4)c4cnn(C5CCNCC5)c4n3)ccc2o1 [Compound 348]	–	< 1	< 1	< 0.1	< 1	< 10	–	–	–	–	–
C[C@H]1CN(C2CN(c3cnc4ccc(-c5ccc6oc(N)nc6c5)cc4n3)C2)CCN1 [Compound 350]	–	> 10	< 0.1	< 10	> 10	< 10	–	–	–	–	–
Cc1cc2oc(N)nc2cc1-c1ccc2ncc(N3CC(N4CCOCC4)C3)nc2c1 [Compound 353]	–	> 10	< 10	> 10	> 10	> 10	–	–	–	–	–
Cc1nccn1C1CN(c2cnc3ccc(-c4ccc5oc(N)nc5c4)cc3n2)C1 [Compound 354]	–	< 10	< 0.1	< 10	< 10	< 10	–	–	–	–	–
Nc1nc2cc(-c3ccc4ncc(N5CC(N6CCOCC6)C5)nc4c3)c(F)cc2o1 [Compound 373]	–	> 10	< 0.1	< 10	< 10	< 10	–	–	–	–	–

SMILES	dose limiting or most common side effect [1]	IC50 (mTOR) [µM]	IC50 (PI3K α (p110α/p85α)) [µM]	IC50 (PI3K β (p110β/p85α)) [µM]	IC50 (PI3K γ (p110γ)) [µM]	IC50 (PI3K δ) [µM]	IC50 (mTOR; Table 4 (PI3K α inhibitors)) [µM]	IC50 (PI3K α (p110α/p85α); Table 4 (PI3K α inhibitors)) [µM]	IC50 (PI3K β (p110β/p85α); Table 4 (PI3K α inhibitors)) [µM]	IC50 (PI3K γ (p110γ); Table 4 (PI3K α inhibitors)) [µM]	IC50 (PI3K δ; Table 4 (PI3K α inhibitors)) [µM]
CS(=O)(=O)N1CCN(C2CCN(c3cnc4ccc(-c5ccc6oc(N)nc6c5)cc4n3)CC2)CC1 [Compound 377]	–	< 10	< 0.1	< 10	< 1	< 10	–	–	–	–	–
CN1CCN([C@@H]2CCN(c3cnc4ccc(-c5ccc6oc(N)nc6c5)cc4n3)C2)CC1 [Compound 379]	–	< 10	< 0.1	< 1	> 10	< 10	–	–	–	–	–
COc1ncc(-c2ccc3ncc(C(=O)N4CCOCC4)n3c2)cc1NS(=O)(=O)c1ccc(F)cc1F [Compound 417]	–	< 1	< 0.1	< 0.1	< 0.1	< 0.1	–	–	–	–	–
O=C(c1cnc2ccc(-c3cnc(Cl)c(NS(=O)(=O)c4ccc(F)cc4F)c3)cn12)N1CCOCC1 [Compound 419]	–	< 1	< 0.1	< 0.1	< 0.1	< 0.1	–	–	–	–	–
NCC(=O)N1CCN(c2cnc3ccc(-c4ccc5oc(N)nc5c4)nc3c2)CC1 [Compound 588]	–	–	–	–	–	–	> 10	< 0.1	< 1	< 1	< 1
Nc1nc2cc(-c3ccc4ncc(N5CCN(C(=O)C6(N)CC6)CC5)nc4n3)ccc2o1 [Compound 592]	–	–	–	–	–	–	< 10	< 0.1	< 10	< 0.1	< 10
CC(C)(N)C(=O)N1CCN(c2cnc3ccc(-c4ccc5oc(N)nc5c4)nc3c2)CC1 [Compound 594]	–	–	–	–	–	–	> 10	< 0.1	< 10	< 1	< 1
CC(C)N1CCN(c2cnc3ccc(-c4ccc5oc(N)nc5c4)nc3c2)CC1 [Compound 595]	–	–	–	–	–	–	> 10	< 0.1	< 1	< 1	< 1
CC(C)N1CCN(C2CN(c3cnc4ccc(-c5ccc6oc(N)nc6c5)nc4c3)C2)CC1 [Compound 623]	–	–	–	–	–	–	> 10	< 0.1	< 1	< 10	< 1
CN1CCN(C2CN(c3cnc4ccc(-c5ccc6oc(N)nc6c5)nc4c3)C2)CC1 [Compound 625]	–	–	–	–	–	–	> 10	< 0.1	< 1	< 1	< 1
CS(=O)(=O)OCCCCOS(C)(=O)=O [busulfan, 1,4-butanediol dimethanesulfonate]	Bone marrow suppression	–	–	–	–	–	–	–	–	–	–
N.N.O=C([O-])C1(C(=O)[O-])CCC1.[Pt+2] [carboplatin, platinum, diamine [1,1-cyclobutane-dicarboxylate(2-)-O,O′]]	Bone marrow suppression	–	–	–	–	–	–	–	–	–	–
O=C(O)CCCc1ccc(N(CCCl)CCCl)cc1 [chlorambucil]	Bone marrow suppression	–	–	–	–	–	–	–	–	–	–
N.N.[Cl][Pt][Cl] [cisplatin, cis-diamminedichloroplatinum]	nephrotoxicity, which may be controlled by hydration and diuresis, and ototoxicity	–	–	–	–	–	–	–	–	–	–
O.O=P1(N(CCCl)CCCl)NCCCO1 (centres unmarked) [cyclophosphamide, 2-[bis(2-chloroethyl)amino]tetrahydro-2H-1,3,2-oxazaphosphorine 2-oxide monohydrate]	Alopecia, nausea, vomiting and leukopenia	–	–	–	–	–	–	–	–	–	–
CN(C)N=Nc1[nH]cnc1C(N)=O [dacarbazine, 5-(3,3-dimethyl-1-triazeno)-imidazole-4-carboxamide]	Nausea, vomiting, and anorexia	–	–	–	–	–	–	–	–	–	–
